According to patent US20170202838A1, “IMMUNOMODULATOR” (TAIHO PHARMACEUTICAL CO., LTD., priority 2015, published 2017):

How the values were obtained:
[1] = test system: C57BL/6N mouse spleen cells mixed with irradiated BALB/c mouse spleen cells; test: T cell modulation through mixed lymphocyte reaction, 3H-Thd uptake (Example 3); format: cell-based; settings: allogeneic mixed spleen cells, 3 days culture (FIG. 4)
Description: A mixed lymphocyte reaction (MLR) is a representative experimentation technique for T cell modulation described in, for example, J. Exp. Med. 127 (5): 879-90, 1968. The influence of Compound (I) imposed on T cell modulation through this reaction was examined.
Spleens were extracted from C57BL/6N mice and BALB/c mice, grinded with glass slides with frosted areas, and then subjected to hemolysis, so as to obtain spleen cells. The C57BL/6N mouse spleen cells and the BALB/c mouse spleen cells were introduced into a complete medium (i.e., RPMI-1640 supplemented with 10% heat-inactivated FBS, 100 U/ml penicillin, 100 μg/ml streptomycin, and 55 μM 2-mercaptoethanol). The BALB/c mouse spleen cells were irradiated with 30 Gy X-ray to destroy the growth activity. The spleen cells of these allogeneic mice were each added to the final concentration of 1×10^5 cells/well and mixed (Alo), and Compound (I) or the EGFR tyrosine kinase inhibitor (i.e., AZD09291 or Erlotinib) adjusted to relevant concentrations was added thereto. As a control sample, a mixture of syngeneic C57BL/6N mouse spleen cells (Syn) was also prepared. The culture solution was seeded in a 96-well plate at 200 μl/well and then cultured in an incubator at 37° C. in the presence of 5% CO2 for 3 days. […] The amount of 3H-Thd uptake was measured using a liquid scintillation counter.

EGFR tyrosine kinase = EGFR tyrosine kinase (Homo sapiens, UniProt P00533); settings: known from WO 2013/125709; cited from earlier work
EGFR tyrosine kinase, sequence (P00533 25-1210): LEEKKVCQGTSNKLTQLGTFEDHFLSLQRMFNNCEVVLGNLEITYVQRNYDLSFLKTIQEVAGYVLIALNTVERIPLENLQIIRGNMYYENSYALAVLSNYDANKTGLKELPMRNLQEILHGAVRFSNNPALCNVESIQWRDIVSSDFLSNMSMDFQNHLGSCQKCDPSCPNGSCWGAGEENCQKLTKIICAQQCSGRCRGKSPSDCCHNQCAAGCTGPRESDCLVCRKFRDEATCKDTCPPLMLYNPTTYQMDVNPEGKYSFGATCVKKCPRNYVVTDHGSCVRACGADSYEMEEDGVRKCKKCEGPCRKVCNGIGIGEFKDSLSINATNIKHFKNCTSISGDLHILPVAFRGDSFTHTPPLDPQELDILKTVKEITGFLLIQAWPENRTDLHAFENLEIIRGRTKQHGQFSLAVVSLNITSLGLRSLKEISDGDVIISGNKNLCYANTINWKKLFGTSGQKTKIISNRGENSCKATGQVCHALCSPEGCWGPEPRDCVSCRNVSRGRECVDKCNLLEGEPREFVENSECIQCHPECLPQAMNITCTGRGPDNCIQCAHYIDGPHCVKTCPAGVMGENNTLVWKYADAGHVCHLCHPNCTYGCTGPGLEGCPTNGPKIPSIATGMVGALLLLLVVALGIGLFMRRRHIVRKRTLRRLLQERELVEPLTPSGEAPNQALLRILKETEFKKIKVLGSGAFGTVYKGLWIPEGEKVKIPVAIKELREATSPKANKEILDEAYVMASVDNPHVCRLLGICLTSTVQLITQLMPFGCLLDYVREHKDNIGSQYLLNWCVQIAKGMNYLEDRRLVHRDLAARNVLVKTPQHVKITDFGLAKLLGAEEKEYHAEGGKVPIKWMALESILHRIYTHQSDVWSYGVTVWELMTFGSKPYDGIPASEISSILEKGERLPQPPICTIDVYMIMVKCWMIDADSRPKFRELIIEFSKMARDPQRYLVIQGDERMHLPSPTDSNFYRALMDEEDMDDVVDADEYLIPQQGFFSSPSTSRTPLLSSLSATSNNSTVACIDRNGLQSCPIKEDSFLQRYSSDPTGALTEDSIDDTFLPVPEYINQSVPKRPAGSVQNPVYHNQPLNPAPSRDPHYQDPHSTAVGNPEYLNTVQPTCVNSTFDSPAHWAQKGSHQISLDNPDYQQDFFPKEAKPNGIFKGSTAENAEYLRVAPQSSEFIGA

C=CC(=O)N[C@H]1CCc2c(-c3cnc4ccccc4c3)c3c(N)ncnc3n2C1 [Compound (I), (S)—N-(4-amino-5-(quinolin-3-yl)-6,7,8,9-tetrahydropyrimido[5,4-b]indolizin-8-yl)acrylamide]
amount of 3H-Thd uptake (amount of T cells grown through the mixed lymphocyte reaction) [1]: induced the growth of T cells
inhibition of EGFR tyrosine kinase (EGFR tyrosine kinase): inhibit EGFR tyrosine kinase with high selectivity
